Patent US20240293563A1, “GLP-1 RECEPTOR LIGAND MOIETY CONJUGATED OLIGONUCLEOTIDES AND USES THEREOF” (priority 2017, published 2024)
Square brackets hold non-standard residues; d marks the D form. Side chains are listed from the residue outwards. Ends that are not written are not given here. 5'‑hexylamino oligonucleotide ISIS 786434 = not defined here; Aib = CC(C)(N)C(=O)O; Mpa = O=C(O)CCS

What was measured:
[1] = Food intake of mice after single subcutaneous injection of GLP-1 conjugated ASO; type: in vivo, mouse
Protocol: Groups of eight mice were administered a single subcutaneous injection of 0.01, 0.03, or 0.1 μmol/kg of ION 816385 (GLP-1 conjugated MALAT-1 ASO conjugated via a disulfide linker) or 0.1 μmol/kg ION 1123118 (GLP-1 conjugated MALAT-1 ASO conjugated via a maleimide acid linker), as indicated in the table below, and food intake was measured for 24 hours. Food intake of eight mice administered a subcutaneous injection of PBS was monitored as a control.

MALAT1 mRNA = test: Dose dependent antisense inhibition of MALAT1 in hGLP1R-HEK cells; type: cell-based, human; conditions: approximately 24 hrs, qRT-PCR normalized to RPLP0
Protocol: The hGLP1R-HEK cell line was generated by expressing hGLP1R in Flp-IN™ 293 cells. Cultured hGLP1R-HEK cells were seeded at a density 30,000 cells per well in 96 well plates and saline, 100 nM or 10 μM of unconjugated parent antisense oligonucleotide ISIS 556089 targeted to MALAT1 described above or ISIS 776102 (nucleobase sequence: […]) (SEQ ID NO: 64) targeted to FOXO1, or corresponding GLP-1 peptide conjugated antisense oligonucleotides (ISIS 816385 targeted to MALAT1 described above or ION 913193 targeted to FOXO1 described above) for approximately 24 hrs. After the treatment period, cells were harvested, the mRNA isolated and adjusted to total RNA content as measured by nanadrop UV-Vis spectrophotometer. MALAT1 or FOXO1 mRNA levels were measured by quantitative real-time PCR and normalized to the mRNA levels of the house keeping gene (RPLP0) in the same samples. Human MALAT1 mRNA levels were measured using gene expression assays HS00273907 and FOXO1 mRNA levels were measured using assay Hs01054576 (Applied Biosystems). The mRNA level of the house keeping gene RPLP0 was measured using a primer probe set with forward sequence […] CAT […] (SEQ ID NO: 66), reverse sequence […] (SEQ ID NO: 67). […]
After the treatment period cells were harvested, mRNA isolated and MALAT1 mRNA levels measured by quantitative real-time PCR using the primer probe set as described herein (Example 7). […]

In the case of “ISIS 816385 (H[Aib]EGTFTSDVSSYLEEQAAKEFIAWLVKGGPSSGAPPPSC([Mpa-5'‑hexylamino oligonucleotide ISIS 786434])-NH2; reading uncertain; also: Cys40 joined to the linker by a disulfide)”, the “Cumulative Food Intake” value ([1]; 0.01 μmol/kg single s.c., Time 1 h) is reported as 0.10 g, the “Cumulative Food Intake” value ([1]; 0.01 μmol/kg single s.c., Time 2 h) is reported as 0.25 g and the “Cumulative Food Intake” value ([1]; 0.01 μmol/kg single s.c., Time 3 h) is reported as 0.40 g. For the same substance, the “Cumulative Food Intake” value ([1]; 0.01 μmol/kg single s.c., Time 4 h) was 0.56 g, the “Cumulative Food Intake” value ([1]; 0.01 μmol/kg single s.c., Time 5 h) was 0.71 g and the “Cumulative Food Intake” value ([1]; 0.01 μmol/kg single s.c., Time 6 h) was 0.86 g. For the same substance, the “Cumulative Food Intake” value ([1]; 0.01 μmol/kg single s.c., Time 7 h) was 1.09 g, the “Cumulative Food Intake” value ([1]; 0.01 μmol/kg single s.c., Time 8 h) was 1.23 g and the “Cumulative Food Intake” value ([1]; 0.01 μmol/kg single s.c., Time 9 h) was 1.34 g. For the same substance, the “Cumulative Food Intake” value ([1]; 0.01 μmol/kg single s.c., Time 10 h) was 1.47 g, the “Cumulative Food Intake” value ([1]; 0.01 μmol/kg single s.c., Time 11 h) was 1.61 g and the “Cumulative Food Intake” value ([1]; 0.01 μmol/kg single s.c., Time 12 h) was 1.81 g. The “Cumulative Food Intake” value ([1]; 0.01 μmol/kg single s.c., Time 13 h) was 1.97 g, the “Cumulative Food Intake” value ([1]; 0.01 μmol/kg single s.c., Time 14 h) was 2.22 g and the “Cumulative Food Intake” value ([1]; 0.01 μmol/kg single s.c., Time 15 h) was 2.26 g. The “Cumulative Food Intake” value ([1]; 0.01 μmol/kg single s.c., Time 16 h) was 2.31 g, the “Cumulative Food Intake” value ([1]; 0.01 μmol/kg single s.c., Time 17 h) was 2.57 g and the “Cumulative Food Intake” value ([1]; 0.01 μmol/kg single s.c., Time 18 h) was 2.57 g. The “Cumulative Food Intake” value ([1]; 0.01 μmol/kg single s.c., Time 19 h) was 2.58 g, the “Cumulative Food Intake” value ([1]; 0.01 μmol/kg single s.c., Time 20 h) was 2.64 g and the “Cumulative Food Intake” value ([1]; 0.01 μmol/kg single s.c., Time 21 h) was 2.64 g. The “Cumulative Food Intake” value ([1]; 0.01 μmol/kg single s.c., Time 22 h) was 2.69 g, the “Cumulative Food Intake” value ([1]; 0.01 μmol/kg single s.c., Time 23 h) was 2.69 g and the “Cumulative Food Intake” value ([1]; 0.01 μmol/kg single s.c., Time 24 h) was 2.69 g. The “Cumulative Food Intake” value ([1]; 0.03 μmol/kg single s.c., Time 1 h) was 0.15 g, the “Cumulative Food Intake” value ([1]; 0.03 μmol/kg single s.c., Time 2 h) was 0.21 g and the “Cumulative Food Intake” value ([1]; 0.03 μmol/kg single s.c., Time 3 h) was 0.26 g. For the same substance, the “Cumulative Food Intake” value ([1]; 0.03 μmol/kg single s.c., Time 4 h) was 0.31 g, the “Cumulative Food Intake” value ([1]; 0.03 μmol/kg single s.c., Time 5 h) was 0.38 g and the “Cumulative Food Intake” value ([1]; 0.03 μmol/kg single s.c., Time 6 h) was 0.48 g. The “Cumulative Food Intake” value ([1]; 0.03 μmol/kg single s.c., Time 7 h) was 0.53 g, the “Cumulative Food Intake” value ([1]; 0.03 μmol/kg single s.c., Time 8 h) was 0.55 g and the “Cumulative Food Intake” value ([1]; 0.03 μmol/kg single s.c., Time 9 h) was 0.66 g. The “Cumulative Food Intake” value ([1]; 0.03 μmol/kg single s.c., Time 10 h) was 0.73 g, the “Cumulative Food Intake” value ([1]; 0.03 μmol/kg single s.c., Time 11 h) was 0.79 g and the “Cumulative Food Intake” value ([1]; 0.03 μmol/kg single s.c., Time 12 h) was 0.89 g. For the same substance, the “Cumulative Food Intake” value ([1]; 0.03 μmol/kg single s.c., Time 13 h) was 0.99 g, the “Cumulative Food Intake” value ([1]; 0.03 μmol/kg single s.c., Time 14 h) was 1.07 g and the “Cumulative Food Intake” value ([1]; 0.03 μmol/kg single s.c., Time 15 h) was 1.09 g. The “Cumulative Food Intake” value ([1]; 0.03 μmol/kg single s.c., Time 16 h) was 1.22 g, the “Cumulative Food Intake” value ([1]; 0.03 μmol/kg single s.c., Time 17 h) was 1.23 g and the “Cumulative Food Intake” value ([1]; 0.03 μmol/kg single s.c., Time 18 h) was 1.26 g. The “Cumulative Food Intake” value ([1]; 0.03 μmol/kg single s.c., Time 19 h) was 1.29 g, the “Cumulative Food Intake” value ([1]; 0.03 μmol/kg single s.c., Time 20 h) was 1.33 g and the “Cumulative Food Intake” value ([1]; 0.03 μmol/kg single s.c., Time 21 h) was 1.39 g. For the same substance, the “Cumulative Food Intake” value ([1]; 0.03 μmol/kg single s.c., Time 22 h) was 1.39 g, the “Cumulative Food Intake” value ([1]; 0.03 μmol/kg single s.c., Time 23 h) was 1.39 g and the “Cumulative Food Intake” value ([1]; 0.03 μmol/kg single s.c., Time 24 h) was 1.39 g. The “Cumulative Food Intake” value ([1]; 0.1 μmol/kg single s.c., Time 1 h) was 0.06 g, the “Cumulative Food Intake” value ([1]; 0.1 μmol/kg single s.c., Time 2 h) was 0.12 g and the “Cumulative Food Intake” value ([1]; 0.1 μmol/kg single s.c., Time 3 h) was 0.17 g. The “Cumulative Food Intake” value ([1]; 0.1 μmol/kg single s.c., Time 4 h) was 0.20 g, the “Cumulative Food Intake” value ([1]; 0.1 μmol/kg single s.c., Time 5 h) was 0.26 g and the “Cumulative Food Intake” value ([1]; 0.1 μmol/kg single s.c., Time 6 h) was 0.28 g. For the same substance, the “Cumulative Food Intake” value ([1]; 0.1 μmol/kg single s.c., Time 7 h) was 0.31 g, the “Cumulative Food Intake” value ([1]; 0.1 μmol/kg single s.c., Time 8 h) was 0.37 g and the “Cumulative Food Intake” value ([1]; 0.1 μmol/kg single s.c., Time 9 h) was 0.39 g. The “Cumulative Food Intake” value ([1]; 0.1 μmol/kg single s.c., Time 10 h) was 0.44 g, the “Cumulative Food Intake” value ([1]; 0.1 μmol/kg single s.c., Time 11 h) was 0.49 g and the “Cumulative Food Intake” value ([1]; 0.1 μmol/kg single s.c., Time 12 h) was 0.50 g. The “Cumulative Food Intake” value ([1]; 0.1 μmol/kg single s.c., Time 13 h) was 0.58 g, the “Cumulative Food Intake” value ([1]; 0.1 μmol/kg single s.c., Time 14 h) was 0.62 g and the “Cumulative Food Intake” value ([1]; 0.1 μmol/kg single s.c., Time 15 h) was 0.67 g. The “Cumulative Food Intake” value ([1]; 0.1 μmol/kg single s.c., Time 16 h) was 0.75 g, the “Cumulative Food Intake” value ([1]; 0.1 μmol/kg single s.c., Time 17 h) was 0.76 g and the “Cumulative Food Intake” value ([1]; 0.1 μmol/kg single s.c., Time 18 h) was 0.83 g. For the same substance, the “Cumulative Food Intake” value ([1]; 0.1 μmol/kg single s.c., Time 19 h) was 0.89 g, the “Cumulative Food Intake” value ([1]; 0.1 μmol/kg single s.c., Time 20 h) was 0.90 g and the “Cumulative Food Intake” value ([1]; 0.1 μmol/kg single s.c., Time 21 h) was 0.91 g. For the same substance, the “Cumulative Food Intake” value ([1]; 0.1 μmol/kg single s.c., Time 22 h) was 0.93 g, the “Cumulative Food Intake” value ([1]; 0.1 μmol/kg single s.c., Time 23 h) was 0.93 g and the “Cumulative Food Intake” value ([1]; 0.1 μmol/kg single s.c., Time 24 h) was 0.94 g. It also gave an IC50 (MALAT1 mRNA) of 20 nM.
